Measured values published in ChEMBL document CHEMBL3085680, “Design and synthesis of P1-P3 macrocyclic tertiary-alcohol-comprising HIV-1 protease inhibitors” (J Med Chem, 2013).

Experiments:
[1] = Cytotoxicity against human MT4 cells after 5 days by XTT assay; type: cell-based
[2] = test system: Human immunodeficiency virus; assay: Antiviral activity against HIV infected in human MT4 cells assessed as inhibition of virus-induced cytopathogenic effect by XTT assay; type: functional, organism-based; details: Human immunodeficiency virus 1, MT4
Protease = Protease (Human immunodeficiency virus 1, UniProt Q9YQ12); assay: Inhibition of HIV1 protease expressed in Escherichia coli by fluorometric assay
Chain of Protease (Q9YQ12 whole entry): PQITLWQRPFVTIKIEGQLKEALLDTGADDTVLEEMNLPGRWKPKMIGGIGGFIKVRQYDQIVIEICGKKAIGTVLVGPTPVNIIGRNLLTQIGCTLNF

[3] = Permeability of the compound across human Caco2 cells; type: ADME, cell-based; details: Caco-2, read-out: permeability

SMILES | Ki (Protease) [µM] | Papp [3] [×10⁻⁶ cm/s] | CC50 at 120 h [1] [µM] | EC50 [2] [µM]
C=CCNC(=O)[C@@H](NC(=O)[C@@](O)(CCCN(Cc1ccc(Br)cc1)NC(=O)[C@@H](NC(=O)OC)C(C)(C)C)Cc1ccc(Br)cc1)C(C)C | 0.011 | – | 22 | 5.8
C=CCNC(=O)[C@@H](NC(=O)[C@](O)(CCCN(Cc1ccc(Br)cc1)NC(=O)[C@@H](NC(=O)OC)C(C)(C)C)Cc1ccc(Br)cc1)C(C)C | 1 | – | 4.5 | > 50
COC(=O)N[C@H](C(=O)NN(CCC[C@@]1(O)Cc2ccc(cc2)/C=C\CNC(=O)[C@H](C(C)(C)C)NC1=O)Cc1ccc(Br)cc1)C(C)(C)C | 0.005 | 31 | 40 | 3.3
COC(=O)N[C@H](C(=O)NN(CCC[C@@]1(O)Cc2ccc(cc2)C/C=C\CNC(=O)[C@H](C(C)C)NC1=O)Cc1ccc(Br)cc1)C(C)(C)C | 0.0031 | 9 | > 50 | 0.37
COC(=O)N[C@H](C(=O)NN(CCC[C@@]1(O)Cc2ccc(cc2)C/C=C\CNC(=O)[C@H](C(C)(C)C)NC1=O)Cc1ccc(Br)cc1)C(C)(C)C | 0.0042 | 10 | 30 | 1
CNC(=O)[C@@H](NC(=O)[C@@](O)(CCCN(Cc1ccc(Br)cc1)NC(=O)[C@@H](NC(=O)OC)C(C)(C)C)Cc1ccccc1)C(C)C | – | – | > 10 | 2.1

Continued, in another order:

Ki (Protease) [µM] | Papp [3] [×10⁻⁶ cm/s] | SMILES | CC50 at 120 h [1] [µM] | EC50 [2] [µM]
0.01 | – | C=CCNC(=O)[C@@H](NC(=O)[C@@](O)(CCCN(Cc1ccc(Br)cc1)NC(=O)[C@@H](NC(=O)OC)C(C)(C)C)Cc1ccc(Br)cc1)C(C)(C)C | 29 | 2.9
0.015 | – | C=CCNC(=O)[C@@H](NC(=O)[C@@](O)(CCCN(Cc1ccc(Br)cc1)NC(=O)[C@@H](NC(=O)OC)C(C)(C)C)Cc1ccc(C=C)cc1)C(C)C | 25 | 6.9
0.016 | 45 | C=CCNC(=O)[C@@H](NC(=O)[C@@](O)(CCCN(Cc1ccc(Br)cc1)NC(=O)[C@@H](NC(=O)OC)C(C)(C)C)Cc1ccc(C=C)cc1)C(C)(C)C | 44 | 5.3
0.03 | 44 | C=CCNC(=O)[C@@H](NC(=O)[C@@](O)(CCCN(Cc1ccc(Br)cc1)NC(=O)[C@@H](NC(=O)OC)C(C)(C)C)Cc1ccc(CC=C)cc1)C(C)C | 24 | 6
0.037 | 44 | C=CCNC(=O)[C@@H](NC(=O)[C@@](O)(CCCN(Cc1ccc(Br)cc1)NC(=O)[C@@H](NC(=O)OC)C(C)(C)C)Cc1ccc(CC=C)cc1)C(C)(C)C | > 50 | 7.5
0.98 | – | C=CCNC(=O)[C@@H](NC(=O)[C@](O)(CCCN(Cc1ccc(Br)cc1)NC(=O)[C@@H](NC(=O)OC)C(C)(C)C)Cc1ccc(Br)cc1)C(C)(C)C | 21 | > 50
0.78 | – | C=CCNC(=O)[C@@H](NC(=O)[C@](O)(CCCN(Cc1ccc(Br)cc1)NC(=O)[C@@H](NC(=O)OC)C(C)(C)C)Cc1ccc(C=C)cc1)C(C)C | 5.8 | > 50
0.72 | – | C=CCNC(=O)[C@@H](NC(=O)[C@](O)(CCCN(Cc1ccc(Br)cc1)NC(=O)[C@@H](NC(=O)OC)C(C)(C)C)Cc1ccc(C=C)cc1)C(C)(C)C | 25 | > 50
